Reference: article PMC4362760, “JAK2^V617F Drives Mcl-1 Expression and Sensitizes Hematologic Cell Lines to Dual Inhibition of JAK2 and Bcl-xL” (PLoS ONE, 2015)
“And” between values parts separate entries of the source, which are not always exact repeats. Identical values can stand only once.

Legend:
Abl = Abl (Homo sapiens, UniProt P00519); test: TR-FRET Kinome Abl; assay type: binding; settings: Abl Invitrogen .025(Subs Conc)
Description: (§1) (XLS) Click here for additional data file.

Akt1 = Akt1 (Homo sapiens, UniProt P31749); test: TR-FRET Kinome Akt1; assay type: binding; settings: Akt1 Invitrogen .2(Subs Conc)
Description: as §1

DDR1 = DDR1 (Homo sapiens, UniProt Q08345); test: TR-FRET Kinome DDR1; assay type: binding; settings: DDR1 Invitrogen .01(Subs Conc)
Description: as §1

MST1 = MST1 (Homo sapiens, UniProt Q13043); test: TR-FRET Kinome MST1; assay type: binding; settings: MST1 Invitrogen .05(Subs Conc)
Description: as §1

SGK1 = SGK1 (Homo sapiens, UniProt O00141); test: TR-FRET Kinome SGK1; assay type: binding; settings: SGK1 Millipore .1(Subs Conc)
Description: as §1

STK33 = STK33 (Homo sapiens, UniProt Q9BYT3); test: TR-FRET Kinome STK33; assay type: binding; settings: STK33 Invitrogen .005(Subs Conc)
Description: as §1

Mcl-1 mRNA = Mcl-1 mRNA abundance by qPCR in SET-2, UKE-1, HEL, MV4;11, K562 cells; assay type: cell-based; settings: for MCL-1 % Control: treated vs non-treated (100.0); for MCL-1 Mean QTY: treated, normalised mRNA quantity by qPCR
Mcl-1 = Mcl-1 protein level by immunoblotting, quantitation by LiCor Odyssey Imager; assay type: cell-based
Procedure: SET-2, HEL, MV4;11, and K562 cells were obtained from ATCC and cultured as recommended. UKE-1 cells were purchased from Walter Fiedler (University of Hamburg). Cell lysates were either prepared using CHAPS lysis buffer (10 mM HEPES, pH 7.4, 150 mM NaCl, 1% CHAPS) or cell extraction buffer containing 1% Triton X-100, 0.1% SDS, and 0.5% deoxycholate. All buffers were supplemented with protease and phosphatase inhibitor cocktails prior to use.
Fig 1 Regulation of Mcl-1 and Bcl-XL by JAK2 ^V617F. […] Tyrosine phoshorylation of STAT3 and STAT5 was determined by immunoblotting. […] Constitutive tyrosine phosphorylation of STAT3 and STAT5 was determined by immunoblotting. […] Data represent means +/- standard deviation for two independent determinations each performed in triplicate. […] (G) Quantification of the data shown in (F). Data are expressed as the ratio of intensity of Mcl-1/β-actin for each time point. […] Data are means of duplicate samples and are representative of two independent experiments.
Supplementary file pone.0114363.s003.xls: S3 Dataset Quantitation of western blot data by LiCor Odyssey Imager. (XLS) Click here for additional data file.

Chain of MST1 (Q13043 whole entry): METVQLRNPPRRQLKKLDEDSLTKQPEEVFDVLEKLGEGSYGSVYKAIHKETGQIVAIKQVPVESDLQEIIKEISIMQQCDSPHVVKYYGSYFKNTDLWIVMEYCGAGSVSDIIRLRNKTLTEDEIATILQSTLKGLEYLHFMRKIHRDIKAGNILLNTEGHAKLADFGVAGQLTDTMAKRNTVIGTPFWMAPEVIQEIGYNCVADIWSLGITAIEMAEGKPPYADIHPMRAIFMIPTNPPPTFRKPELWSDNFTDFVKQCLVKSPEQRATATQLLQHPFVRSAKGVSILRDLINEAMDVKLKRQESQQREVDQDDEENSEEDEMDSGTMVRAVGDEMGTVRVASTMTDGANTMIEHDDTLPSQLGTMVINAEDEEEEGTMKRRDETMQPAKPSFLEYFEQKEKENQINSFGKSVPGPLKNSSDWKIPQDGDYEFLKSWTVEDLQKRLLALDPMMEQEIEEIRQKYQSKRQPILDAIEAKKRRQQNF
Chain of DDR1 (Q08345 19-913): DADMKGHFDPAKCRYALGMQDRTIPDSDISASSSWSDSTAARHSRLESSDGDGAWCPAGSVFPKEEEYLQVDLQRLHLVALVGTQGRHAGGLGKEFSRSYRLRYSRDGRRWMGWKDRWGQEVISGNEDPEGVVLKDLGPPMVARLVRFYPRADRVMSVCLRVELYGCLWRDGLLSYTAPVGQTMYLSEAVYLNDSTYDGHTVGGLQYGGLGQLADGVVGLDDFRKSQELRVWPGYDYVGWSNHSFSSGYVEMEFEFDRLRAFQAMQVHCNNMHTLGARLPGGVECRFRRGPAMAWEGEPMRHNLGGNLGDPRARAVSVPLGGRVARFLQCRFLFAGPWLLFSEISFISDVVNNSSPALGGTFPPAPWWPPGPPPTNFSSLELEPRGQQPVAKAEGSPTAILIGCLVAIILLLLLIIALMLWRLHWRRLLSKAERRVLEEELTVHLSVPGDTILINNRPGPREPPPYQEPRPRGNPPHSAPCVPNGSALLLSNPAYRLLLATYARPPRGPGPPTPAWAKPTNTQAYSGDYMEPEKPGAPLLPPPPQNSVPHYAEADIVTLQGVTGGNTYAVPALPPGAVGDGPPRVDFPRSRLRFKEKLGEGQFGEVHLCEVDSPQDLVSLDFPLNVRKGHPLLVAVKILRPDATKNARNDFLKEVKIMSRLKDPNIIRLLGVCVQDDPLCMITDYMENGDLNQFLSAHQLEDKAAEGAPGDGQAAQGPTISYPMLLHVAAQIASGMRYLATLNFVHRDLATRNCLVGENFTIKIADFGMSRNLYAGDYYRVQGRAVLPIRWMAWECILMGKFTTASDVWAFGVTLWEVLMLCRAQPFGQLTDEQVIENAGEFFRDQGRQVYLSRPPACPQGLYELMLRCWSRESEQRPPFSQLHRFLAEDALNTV
Chain of SGK1 (O00141 whole entry): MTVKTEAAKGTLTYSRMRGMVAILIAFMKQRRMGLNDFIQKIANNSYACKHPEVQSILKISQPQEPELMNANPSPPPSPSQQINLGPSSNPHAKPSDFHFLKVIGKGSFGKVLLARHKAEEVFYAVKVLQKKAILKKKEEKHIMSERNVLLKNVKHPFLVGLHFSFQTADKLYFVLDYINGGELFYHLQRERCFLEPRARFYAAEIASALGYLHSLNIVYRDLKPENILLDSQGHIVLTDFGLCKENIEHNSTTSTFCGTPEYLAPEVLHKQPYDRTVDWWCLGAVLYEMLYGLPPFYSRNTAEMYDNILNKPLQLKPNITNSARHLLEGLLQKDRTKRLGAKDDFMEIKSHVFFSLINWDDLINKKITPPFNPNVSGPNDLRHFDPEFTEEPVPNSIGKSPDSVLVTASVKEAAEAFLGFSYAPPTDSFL
Chain of STK33 (Q9BYT3 whole entry): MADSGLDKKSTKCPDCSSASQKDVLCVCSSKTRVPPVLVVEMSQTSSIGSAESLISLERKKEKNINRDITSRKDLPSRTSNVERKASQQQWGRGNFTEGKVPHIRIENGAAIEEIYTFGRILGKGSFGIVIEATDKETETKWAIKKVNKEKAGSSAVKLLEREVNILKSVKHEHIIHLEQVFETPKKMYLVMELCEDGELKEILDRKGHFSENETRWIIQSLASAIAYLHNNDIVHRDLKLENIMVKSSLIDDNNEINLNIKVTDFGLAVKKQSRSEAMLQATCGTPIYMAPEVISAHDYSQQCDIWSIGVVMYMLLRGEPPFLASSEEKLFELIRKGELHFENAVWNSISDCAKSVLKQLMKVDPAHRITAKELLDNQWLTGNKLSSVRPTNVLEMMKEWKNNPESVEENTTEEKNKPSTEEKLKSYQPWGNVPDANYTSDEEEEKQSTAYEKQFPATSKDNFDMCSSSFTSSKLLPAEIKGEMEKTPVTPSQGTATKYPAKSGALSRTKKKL
Chain of Abl (P00519 whole entry): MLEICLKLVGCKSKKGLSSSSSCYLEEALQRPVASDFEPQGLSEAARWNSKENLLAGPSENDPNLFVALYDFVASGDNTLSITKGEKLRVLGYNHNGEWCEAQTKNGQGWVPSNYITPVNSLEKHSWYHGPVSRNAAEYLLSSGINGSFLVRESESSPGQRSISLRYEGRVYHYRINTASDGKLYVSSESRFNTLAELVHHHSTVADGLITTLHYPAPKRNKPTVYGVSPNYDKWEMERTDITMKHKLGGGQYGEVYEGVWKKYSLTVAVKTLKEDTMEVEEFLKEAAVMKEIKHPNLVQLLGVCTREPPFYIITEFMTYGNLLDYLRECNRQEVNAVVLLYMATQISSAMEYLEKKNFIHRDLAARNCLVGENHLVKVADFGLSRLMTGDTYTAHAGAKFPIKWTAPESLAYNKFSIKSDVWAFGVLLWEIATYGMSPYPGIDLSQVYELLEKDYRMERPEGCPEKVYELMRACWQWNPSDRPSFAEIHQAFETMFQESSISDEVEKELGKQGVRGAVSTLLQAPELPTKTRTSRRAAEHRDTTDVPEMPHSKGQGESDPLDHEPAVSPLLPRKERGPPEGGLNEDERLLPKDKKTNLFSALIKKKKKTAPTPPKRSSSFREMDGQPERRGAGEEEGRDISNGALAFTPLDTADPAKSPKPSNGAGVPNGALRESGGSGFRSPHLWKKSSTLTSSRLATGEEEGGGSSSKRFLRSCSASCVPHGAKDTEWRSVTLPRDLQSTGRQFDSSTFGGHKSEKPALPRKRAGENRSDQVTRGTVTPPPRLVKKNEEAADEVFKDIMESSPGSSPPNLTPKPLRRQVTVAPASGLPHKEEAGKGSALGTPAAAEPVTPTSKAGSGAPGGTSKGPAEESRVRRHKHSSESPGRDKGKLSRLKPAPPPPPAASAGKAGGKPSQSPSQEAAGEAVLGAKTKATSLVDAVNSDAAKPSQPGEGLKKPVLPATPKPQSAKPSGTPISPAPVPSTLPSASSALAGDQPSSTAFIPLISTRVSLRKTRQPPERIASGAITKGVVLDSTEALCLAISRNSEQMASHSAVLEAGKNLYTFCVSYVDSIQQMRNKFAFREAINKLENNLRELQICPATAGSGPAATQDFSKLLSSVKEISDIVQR
Chain of Akt1 (P31749 whole entry): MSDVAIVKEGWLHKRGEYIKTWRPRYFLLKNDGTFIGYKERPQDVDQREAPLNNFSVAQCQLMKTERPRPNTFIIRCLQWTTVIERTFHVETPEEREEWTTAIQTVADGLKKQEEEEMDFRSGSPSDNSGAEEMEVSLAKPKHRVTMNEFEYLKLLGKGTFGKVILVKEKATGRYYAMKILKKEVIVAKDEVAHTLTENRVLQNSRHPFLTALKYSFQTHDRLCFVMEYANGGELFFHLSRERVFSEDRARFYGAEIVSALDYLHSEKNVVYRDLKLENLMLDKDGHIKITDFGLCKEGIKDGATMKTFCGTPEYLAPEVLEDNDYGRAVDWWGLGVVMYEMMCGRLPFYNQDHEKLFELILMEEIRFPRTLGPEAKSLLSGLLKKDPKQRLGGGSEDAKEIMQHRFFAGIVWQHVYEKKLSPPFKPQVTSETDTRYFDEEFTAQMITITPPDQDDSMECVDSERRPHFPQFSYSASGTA

Question: How did the Ki (Abl) turn out when `CC(C)(C)c1nc2c3cc[nH]c(=O)c3c3cc(F)ccc3c2[nH]1` [JAKi-I, JAK inhibitor I] was run?
Answer: > 2600 nM

Question: And the Ki (Akt1)?
Answer: > 5010 nM

Question: What about the Ki (DDR1) of the same compound?
Answer: > 2590 nM

Question: And the Ki (MST1)?
Answer: 28 nM and 29.5 nM

Question: And the Ki (SGK1)?
Answer: 626 nM

Question: What about the Ki (STK33) of the same compound?
Answer: 30.2 nM

Question: What about the “MCL-1 % Control” value (Mcl-1 mRNA; HEL cells) of the same compound?
Answer: 59.2674%

Question: And the “MCL-1 Mean QTY” value (Mcl-1 mRNA; HEL cells)?
Answer: 25.0

Question: And the “MCL-1 % Control” value (Mcl-1 mRNA; K562 cells)?
Answer: 89.9219%

Question: And the “MCL-1 Mean QTY” value (Mcl-1 mRNA; K562 cells)?
Answer: 50.9

Question: And the “MCL-1 Mean QTY” value (Mcl-1 mRNA; MV411 cells)?
Answer: 30.6

Question: What about the “MCL-1 % Control” value (Mcl-1 mRNA; SET2 cells) of the same compound?
Answer: 37.995%

Question: And the “MCL-1 Mean QTY” value (Mcl-1 mRNA; SET2 cells)?
Answer: 47.0

Question: What about the Mcl-1 transcript level (Mcl-1 mRNA; following JAK inhibition, 6 hr) of the same compound?
Answer: sharply declined

Question: What about the Mcl-1 protein level (Mcl-1; 24-hr time course) of the same compound?
Answer: sharply declined

Question: And the “Mcl-1 protein (% control)” value (Mcl-1; HEL, 1 uM Jaki-I, 2 hr)?
Answer: 62 % control

Question: And the “Mcl-1 protein (% control)” value (Mcl-1; HEL, 1 uM Jaki-I, 6 hr)?
Answer: 45 % control

Question: And the “Mcl-1 protein (% control)” value (Mcl-1; HEL, 1 uM Jaki-I, 24 hr)?
Answer: 42 % control

Question: And the “Mcl-1 protein (% control)” value (Mcl-1; K562, 1 uM Jaki-I, 2 hr)?
Answer: 100 % control

Question: And the “Mcl-1 protein (% control)” value (Mcl-1; K562, 1 uM Jaki-I, 6 hr)?
Answer: 93 % control

Question: And the “Mcl-1 protein (% control)” value (Mcl-1; K562, 1 uM Jaki-I, 24 hr)?
Answer: 93 % control

Question: What about the “Mcl-1 protein (% control)” value (Mcl-1; MV4:11, 1 uM Jaki-I, 2 hr) of the same compound?
Answer: 75 % control

Question: What about the “Mcl-1 protein (% control)” value (Mcl-1; MV4:11, 1 uM Jaki-I, 6 hr) of the same compound?
Answer: 74 % control

Question: And the “Mcl-1 protein (% control)” value (Mcl-1; MV4:11, 1 uM Jaki-I, 24 hr)?
Answer: 65 % control

Question: And the “Mcl-1 protein (% control)” value (Mcl-1; SET-2, 1 uM Jaki-I, 2 hr)?
Answer: 68 % control

Question: And the “Mcl-1 protein (% control)” value (Mcl-1; SET-2, 1 uM Jaki-I, 6 hr)?
Answer: 50 % control

Question: What about the “Mcl-1 protein (% control)” value (Mcl-1; SET-2, 1 uM Jaki-I, 24 hr) of the same compound?
Answer: 35 % control

Question: What about the “Mcl-1 protein (% control)” value (Mcl-1; UKE-1, 1 uM Jaki-I, 2 hr) of the same compound?
Answer: 50 % control

Question: What about the “Mcl-1 protein (% control)” value (Mcl-1; UKE-1, 1 uM Jaki-I, 6 hr) of the same compound?
Answer: 25 % control

Question: What about the “Mcl-1 protein (% control)” value (Mcl-1; UKE-1, 1 uM Jaki-I, 24 hr) of the same compound?
Answer: 22 % control

Question: What about the Mcl-1 protein stability (Mcl-1; in the presence of cycloheximide (data not shown)) of the same compound?
Answer: not altered
